According to US20250122520A1, “Application of OBF1 Transcription Factor in Chromosome Doubling of Plant and Transgenic Plant Cultivation Method” (JIANGSU ACADEMY OF AGRICULTURAL SCIENCES, priority 2023, published 2025):

What was measured:
Assay type in all cases: in vivo
tobaccoes = assay: Ploidy identification by flow cytometer of OBF1 over-expressing tobaccoes screened with kanamycin; conditions: tobacco; for Proportion of chromosome doubling: OBF1 over-expression
Procedure: (5) The leaves were transferred to a screening culture medium with corresponding screening resistance; the culture medium was replaced every two to three weeks, and the leaves waited for differentiation.
(8) The ploidy of the plants was identified by a flow cytometer, the doubling ratio of the plants under different screening concentrations of kanamycin was calculated, and the results are shown in Table 6 and FIGS. 14A-14B.

tomatoes = assay: Ploidy identification by flow cytometer of OBF1 over-expressing tomatoes screened with kanamycin; conditions: tomato; for Proportion of chromosome doubling: OBF1 over-expression
Procedure: (5) The explants were transferred and placed into the screening culture medium; the photoperiod was 18/6 h, the temperature was 22-25° C., the humidity was 60%, and concentration settings of kanamycin and compositions of culture media were shown in Table 3;
(6) The ploidy of the plants was identified by a flow cytometer, the doubling ratio of the plants under different screening concentrations of kanamycin was calculated, and the results are shown in Table 4 and FIGS. 12A-12B.

petunia = assay: Ploidy identification by flow cytometer of OBF1 over-expressing petunias screened with kanamycin; conditions: for Proportion of chromosome doubling: OBF1 over-expression
Procedure: (9) Two days later, the leaves were transferred to a regeneration culture medium with corresponding screening resistance, the culture medium was replaced every two to three weeks, and the leaves waited for differentiation.
(14) The ploidy of the plants was identified by a flow cytometer, a doubling ratio of the plants under different treatment concentrations of kanamycin was calculated, and the results are shown in Table 2 and FIGS. 10A-10C.

## NC[C@H]1O[C@H](O[C@H]2[C@H](O)[C@@H](O[C@H]3O[C@H](CO)[C@@H](O)[C@H](N)[C@H]3O)[C@H](N)C[C@@H]2N)[C@H](O)[C@@H](O)[C@@H]1O [kanamycin]
tobaccoes; kanamycin 50 mg/mL
  Proportion of chromosome doubling: 0%
tobaccoes; kanamycin 100 mg/mL
  Proportion of chromosome doubling: 33.3%
tobaccoes; kanamycin 50 mg/mL, of 10 transgenic plants
  Chromosome-doubled plant: 0 plant
tobaccoes; kanamycin 100 mg/mL, of 20 transgenic plants
  Chromosome-doubled plant: 6 plant
tomatoes; kanamycin 50 mg/mL
  Proportion of chromosome doubling: 0%
tomatoes; kanamycin 100 mg/mL
  Proportion of chromosome doubling: 60%
tomatoes; kanamycin 50 mg/mL, of 30 transgenic plants
  Chromosome-doubled plant: 0 plant
tomatoes; kanamycin 100 mg/mL, of 10 transgenic plants
  Chromosome-doubled plant: 6 plant
petunia; kanamycin 50 mg/L
  Proportion of chromosome doubling: 0%
petunia; kanamycin 100 mg/L
  Proportion of chromosome doubling: 63.6%
petunia; kanamycin 150 mg/L
  Proportion of chromosome doubling: 80%
petunia; kanamycin 50 mg/L, of 27 transgenic plants
  Chromosome-doubled plant: 0 plant
petunia; kanamycin 100 mg/L, of 22 transgenic plants
  Chromosome-doubled plant: 14 plant
petunia; kanamycin 150 mg/L, of 6 transgenic plants
  Chromosome-doubled plant: 4 plant
